The CheMixHub ionic liquid set
± gives the uncertainty stated by the source.

Assay: xn = mol fraction of the nth substance listed
Conditions: 101 kPa

CCCCCCCCCCCCCCCC[n+]1ccccc1.O=C([O-])C(O)c1ccccc1 + NCC(=O)O + O
electrical conductivity [S/m]
Conditions | 293.15 K | 298.15 K | 303.15 K
x1 = 1.08e-06, x2 = 0 | 0.00061 ± 0.00098 | 0.00068 ± 0.0011 | 0.00076 ± 0.0012
x1 = 1.09e-06, x2 = 0.001799 | 0.00103 ± 0.00086 | 0.00118 ± 0.00098 | 0.0013 ± 0.0011
x1 = 1.26e-06, x2 = 0.0009002 | 0.00083 ± 0.00078 | 0.00094 ± 0.00092 | 0.00106 ± 0.00099
x1 = 1.98e-06, x2 = 0 | 0.001 ± 0.001 | 0.0012 ± 0.0012 | 0.0013 ± 0.0013
x1 = 2.17e-06, x2 = 0.001799 | 0.00151 ± 0.00085 | 0.00172 ± 0.00096 | 0.0019 ± 0.0011
x1 = 2.35e-06, x2 = 0.0009002 | 0.00125 ± 0.00084 | 0.00142 ± 0.00094 | 0.0016 ± 0.001
x1 = 2.88e-06, x2 = 0 | 0.00147 ± 0.00099 | 0.0016 ± 0.0011 | 0.0018 ± 0.0012
x1 = 3.26e-06, x2 = 0.001799 | 0.00188 ± 0.00089 | 0.0022 ± 0.001 | 0.0024 ± 0.0011
x1 = 3.43e-06, x2 = 0.0009002 | 0.00163 ± 0.00084 | 0.00185 ± 0.00094 | 0.0021 ± 0.001
x1 = 3.96e-06, x2 = 0 | 0.0019 ± 0.001 | 0.0022 ± 0.0011 | 0.0024 ± 0.0013
x1 = 4.35e-06, x2 = 0.001799 | 0.00233 ± 0.00087 | 0.00265 ± 0.00099 | 0.0029 ± 0.0011
x1 = 4.52e-06, x2 = 0.0009002 | 0.00209 ± 0.00084 | 0.00237 ± 0.00093 | 0.0026 ± 0.001
x1 = 4.69e-06, x2 = 0 | 0.0023 ± 0.001 | 0.0026 ± 0.0011 | 0.0029 ± 0.0013
x1 = 5.26e-06, x2 = 0.001799 | 0.00273 ± 0.00087 | 0.00308 ± 0.00099 | 0.0034 ± 0.0011
x1 = 5.78e-06, x2 = 0.0009002 | 0.00258 ± 0.00088 | 0.00291 ± 0.00099 | 0.0032 ± 0.0011
x1 = 5.95e-06, x2 = 0 | 0.00281 ± 0.00098 | 0.0032 ± 0.0011 | 0.0035 ± 0.0012
x1 = 6.52e-06, x2 = 0.001799 | 0.0032 ± 0.00087 | 0.00363 ± 0.00097 | 0.004 ± 0.0011
x1 = 7.05e-06, x2 = 0.0009002 | 0.00305 ± 0.00082 | 0.00343 ± 0.00092 | 0.0038 ± 0.001
x1 = 7.21e-06, x2 = 0 | 0.00341 ± 0.00095 | 0.0038 ± 0.0011 | 0.0042 ± 0.0012
x1 = 8.16e-06, x2 = 0.001799 | 0.00379 ± 0.00082 | 0.00429 ± 0.00093 | 0.0048 ± 0.001
x1 = 8.31e-06, x2 = 0.0009002 | 0.00355 ± 0.0008 | 0.00401 ± 0.00091 | –
x1 = 8.83e-06, x2 = 0 | 0.00406 ± 0.00092 | 0.0046 ± 0.001 | –
x1 = 9.79e-06, x2 = 0.001799 | 0.00435 ± 0.00082 | 0.00491 ± 0.00092 | –
x1 = 9.94e-06, x2 = 0.0009002 | 0.00404 ± 0.00079 | 0.00455 ± 0.00089 | –
x1 = 1.045e-05, x2 = 0 | 0.00469 ± 0.00089 | 0.0053 ± 0.001 | –
x1 = 1.124e-05, x2 = 0.001799 | 0.00472 ± 0.00079 | 0.00536 ± 0.00089 | –
x1 = 1.138e-05, x2 = 0.0009002 | 0.00443 ± 0.00071 | 0.00502 ± 0.00081 | –
x1 = 1.207e-05, x2 = 0 | 0.00516 ± 0.00088 | 0.0058 ± 0.001 | –
x1 = 1.269e-05, x2 = 0.001799 | 0.00515 ± 0.00077 | 0.00581 ± 0.00088 | –
x1 = 1.283e-05, x2 = 0.0009002 | 0.00481 ± 0.00072 | 0.00543 ± 0.00081 | –
x1 = 1.351e-05, x2 = 0 | 0.00562 ± 0.00086 | 0.00631 ± 0.00097 | –
x1 = 1.41e-05, x2 = 0.0009002 | 0.00512 ± 0.00074 | 0.0058 ± 0.00083 | –
x1 = 1.414e-05, x2 = 0.001799 | 0.00553 ± 0.0008 | 0.00625 ± 0.0009 | –
x1 = 1.478e-05, x2 = 0 | 0.00603 ± 0.0009 | 0.0068 ± 0.001 | –
x1 = 1.54e-05, x2 = 0.001799 | 0.00584 ± 0.0008 | 0.0066 ± 0.00092 | –
x1 = 1.554e-05, x2 = 0.0009002 | 0.0055 ± 0.00096 | 0.00621 ± 0.00094 | –
x1 = 1.622e-05, x2 = 0 | 0.00644 ± 0.00092 | 0.0072 ± 0.001 | –
x1 = 1.667e-05, x2 = 0.001799 | 0.00618 ± 0.00083 | 0.00697 ± 0.00093 | –
x1 = 1.681e-05, x2 = 0.0009002 | 0.0058 ± 0.001 | 0.00657 ± 0.00098 | –
x1 = 1.766e-05, x2 = 0 | 0.00687 ± 0.00093 | 0.0077 ± 0.001 | –
